Reference: US20120035069A1, “PROGNOSIS OF BREAST CANCER PATIENTS BY MONITORING THE EXPRESSION OF TWO GENES” (priority 2009, published 2012)

Assays:
MDA-MB-231 cells [1] = experiment: Transwell migration assay; format: cell-based, human; conditions: control MDA-MB-231 cells; TGFβ1 5 ng/ml
Method: Transwell migration assay were performed in 24 well PET inserts (Falcon […] pore size) for migration assays. For MDA-MB-231, cells were plated in 10 cm dishes, transfected with siRNA and, after 8 hours, serum starved overnight. Then, 50000 or 100000 cells were plated in transwell inserts (at least 3 replicas for each sample) and either left untreated or treated with TGFβ1 (5 ng/ml). For H1299, cells is were plated in the transwell in 10% serum but then changed to 0.2% serum. For both cell lines, cells in the upper part of the transwells were removed with a cotton swab; migrated cells were fixed in PFA 4% and stained with Crystal Violet 0.5%. Filters were photographed and the total number of cells counted. Every experiment was repeated at least 3 times independently.

MDA-MB-231 cells [2] = experiment: Matrigel invasion (evasion) assay; format: cell-based, human; conditions: SB431542 5 μM; control MDA-MB-231 cells embedded in a drop of Matrigel
Method: (C) Assay for invasive activity of MDA-MB-231 cells embedded in a drop of matrigel. Panels show pictures of the same field at different time points. Dotted is lines highlight the edges of the drop. Only control cells are able to evade from the Matrigel® (arrows). This process is dependent on TGFβ signaling as it is blocked by treatment with the TGFβR1 inhibitor SB431542 (5 μM). MDA shp53 cells are impaired in matrix degradation and evasion.
For matrigel invasion assay shown in FIG. 2C, MDA-MB-231 and derivative cell lines were resuspended in drops ([…]) of Matrigel Growth Factor Reduced (BD Biosciences), diluted 1:2 in DMEM/F12.

| Compound | migration through transwell in response to TGFβ (MDA-MB-231 cells [1]) | evasion of cells from the Matrigel drop (TGFβ-dependent invasive activity) (MDA-MB-231 cells [2]) |
| --- | --- | --- |
| TGFβ: TGFβ provided from Peprotech, used to treat cells | potent promigratory response | – |
| NC(=O)c1ccc(-c2nc(-c3ccc4c(c3)OCO4)c(-c3ccccn3)[nH]2)cc1 [SB431542] | – | blocked |
